The source of these data is patent US20230047766A1, “MEDICAL DEVICE, THERAPEUTIC METHOD, AND DIAGNOSTIC METHODS FOR THE TREATMENT AND PREVENTION OF VASOSPASM” (Sylvian Inc., priority 2020, published 2023).

In one series the test system is ET-1. The conditions noted are these: intravenous; clinical trial databases; cited from earlier work.
The next series relates to rats. As to the kind of experiment: intrathecal (IT) administration to rats: Evans blue distribution and maximum dose volume of saline for 30 minutes. To be noted: rat, in vivo. On the procedure:
A first experiment was conducted to establish a procedure of intrathecal (IT) administration to rats to determine the maximum dose volume by IT administration of saline for 30 minutes. An approximately 30 μL of 1.0% Evans blue solution was administered to 6 anesthetized rats via a catheter placed in the subarachnoid space in the cisternal magna. After administration, the animals were necropsied, and the central nervous system (CNS) including the brain and cervical spinal cord were macroscopically observed to verify the distribution of Evans blue solution. In addition, 0.125, 0.25, 0.5, and 1.0 mL of saline, which is considered to be respectively approximately ½, equal, 2-fold, and 4-fold of a total volume of CSF in rats, was administered to 1 or 3 unanesthetized rats per dose volume. Saline was administered for 30 minutes using an infusion pump. Clinical signs were observed during the dosing and until 1 hour after dosing. The animals were necropsied on the next day of dosing and the CNS were macroscopically observed.

In another series the test system is dogs. As to the kind of experiment: intrathecal (IT) administration to dogs: Evans blue distribution and maximum dose volume of saline for 30 minutes. It counts as in vivo. The conditions noted are these: anesthetized dogs, approx. 1 mL of 0.5% solution, catheter near the bregma. On the procedure: A second experiment was conducted to establish a procedure of IT administration to dogs to determine the maximum dose volume by IT administration of saline for 30 minutes. An approximately 1 mL of 0.5% Evans blue solution was administered to 4 anesthetized dogs via a catheter placed in the subarachnoid space near the bregma. After the administration, the animals were necropsied, and the CNS was macroscopically observed to verify the distribution of the Evans blue solution. In addition, 8 or 4 mL of saline, which is considered to be respectively approximately […] of a total volume of CSF, was administered to 6 unanesthetized dogs under a restrained condition. Saline was administered during the dosing and until 1 hour after dosing. The animals were necropsied on the next day of dosing and the CNS were macroscopically observed.

The subject of series [1] is vasospasm associated with SAH. To be noted: animal studies; high concentrations (~7%) in cranial ventricles; cited from earlier work.
Series [2] is described as follows: solubility of trehalose in water (saturated trehalose solution). It counts as physicochemical. To be noted: 20° C. On the procedure:
FIGS. 4A-4G are graphs showing simulations of trehalose concentrations in human CSF to determine clinical dose regimens. The simulations assume that a CSF volume of a human is approximately 140 mL and that the CSF exchange rate is approximately […]. […] In the simulations, the trehalose is administered by a bolus injection, and is equally distributed in the CSF immediately after the injection. For the simulations below, a saturated trehalose solution was prepared by dissolving 68.9 g of trehalose per 100 g of water at 20° C.
FIG. 4A is a graph 400 showing a simulation of trehalose concentration 410 in human CSF to determine a clinical dose regimen. In this example simulation, 9.8 g of trehalose was estimated to be required to achieve a 7 wt % trehalose concentration in the CSF immediately after injection.

As to `COc1ccccc1Oc1c(NS(=O)(=O)c2ccc(C)cn2)nc(-c2ccnc(-c3nnn[nH]3)c2)nc1OCCO` [Clozasentan], the effect on vasospasm entry with ET-1 is “reversal of vasospasms in large arteries”.
Take `Cc1cc(-c2ccc(/N=N/c3ccc4c(S(=O)(=O)O)cc(S(=O)(=O)O)c(N)c4c3O)c(C)c2)ccc1/N=N/c1ccc2c(S(=O)(=O)O)cc(S(=O)(=O)O)c(N)c2c1O` [Evans blue solution, Evans blue]: the “distribution after IT administration (macroscopic observation)” value in the series with rats was “distributed to the subarachnoid space of the cisterna magna, the bottom of the brain, and the cervical spinal cord in all animals”; in the series on dogs, “distributed to the subarachnoid space of the whole cerebral cortex”.
For `OC[C@H]1O[C@H](O[C@H]2O[C@H](CO)[C@@H](O)[C@H](O)[C@H]2O)[C@H](O)[C@@H](O)[C@@H]1O` [trehalose], the “effect on inflammatory cascade and vasospasm associated with SAH” value in series [1] is “significant inhibition of the inflammatory cascade and vasospasm”. Besides, the “trehalose dissolved for a saturated solution” value in series [2] is recorded as 68.9 g per 100 g of water.
